Experimental data from the NIST ThermoML archive (doi:10.1016/j.jct.2012.06.012).

Test: xn = mol fraction of the nth substance listed
Settings: Liquid, Vibrating tube method

CCCCCCCCCC [decane] + CCO
Settings	mass density [kg/m3]
332.86 K, 16000 kPa, x2 = 0.0937	713.17
332.86 K, 16000 kPa, x2 = 0.9014	751.15
332.86 K, 17000 kPa, x2 = 0.0937	714.01
332.86 K, 17000 kPa, x2 = 0.9014	752.07
332.86 K, 18000 kPa, x2 = 0.0937	714.82
332.86 K, 18000 kPa, x2 = 0.9014	752.96
332.86 K, 19000 kPa, x2 = 0.0937	715.64
332.86 K, 19000 kPa, x2 = 0.9014	753.84
332.86 K, 20000 kPa, x2 = 0.0937	716.42
332.86 K, 20000 kPa, x2 = 0.9014	754.71
332.87 K, 1000 kPa, x2 = 0.1011	699.31
332.87 K, 1000 kPa, x2 = 0.4963	707.52
332.87 K, 2000 kPa, x2 = 0.1011	700.32
332.87 K, 2000 kPa, x2 = 0.4963	708.54
332.87 K, 3000 kPa, x2 = 0.1011	701.31
332.87 K, 3000 kPa, x2 = 0.4963	709.55
332.87 K, 4000 kPa, x2 = 0.1011	702.29
332.87 K, 4000 kPa, x2 = 0.4963	710.55
332.87 K, 5000 kPa, x2 = 0.1011	703.26
332.87 K, 5000 kPa, x2 = 0.4963	711.53
332.87 K, 6000 kPa, x2 = 0.1011	704.21
332.87 K, 6000 kPa, x2 = 0.4963	712.5
332.87 K, 7000 kPa, x2 = 0.1011	705.15
332.87 K, 7000 kPa, x2 = 0.4963	713.48
332.87 K, 8000 kPa, x2 = 0.1011	706.08
332.87 K, 8000 kPa, x2 = 0.4963	714.46
332.87 K, 9000 kPa, x2 = 0.1011	707
332.87 K, 9000 kPa, x2 = 0.4963	715.43
332.87 K, 10000 kPa, x2 = 0.1011	707.91
332.87 K, 10000 kPa, x2 = 0.4963	716.38
332.87 K, 11000 kPa, x2 = 0.1011	708.83
332.87 K, 11000 kPa, x2 = 0.4963	717.33
332.87 K, 12000 kPa, x2 = 0.1011	709.73
332.87 K, 12000 kPa, x2 = 0.4963	718.27
332.87 K, 13000 kPa, x2 = 0.1011	710.62
332.87 K, 13000 kPa, x2 = 0.4963	719.21
332.87 K, 14000 kPa, x2 = 0.1011	711.51
332.87 K, 14000 kPa, x2 = 0.4963	720.13
332.87 K, 15000 kPa, x2 = 0.1011	712.38
332.87 K, 15000 kPa, x2 = 0.4963	721.03
332.87 K, 16000 kPa, x2 = 0.1011	713.23
332.87 K, 16000 kPa, x2 = 0.4963	721.92
332.87 K, 17000 kPa, x2 = 0.1011	714.07
332.87 K, 17000 kPa, x2 = 0.4963	722.8
332.87 K, 18000 kPa, x2 = 0.1011	714.88
332.87 K, 18000 kPa, x2 = 0.4963	723.66
332.87 K, 19000 kPa, x2 = 0.1011	715.69
332.87 K, 19000 kPa, x2 = 0.4963	724.5
332.87 K, 20000 kPa, x2 = 0.1011	716.47
332.87 K, 20000 kPa, x2 = 0.4963	725.32
332.91 K, 1000 kPa, x2 = 0.7526	720.88
332.91 K, 2000 kPa, x2 = 0.7526	721.93
332.91 K, 3000 kPa, x2 = 0.7526	722.96
332.91 K, 4000 kPa, x2 = 0.7526	723.98
332.91 K, 5000 kPa, x2 = 0.7526	725
332.91 K, 6000 kPa, x2 = 0.7526	726.01
332.91 K, 7000 kPa, x2 = 0.7526	727.02
332.91 K, 8000 kPa, x2 = 0.7526	728.03
332.91 K, 9000 kPa, x2 = 0.7526	729.03
332.91 K, 10000 kPa, x2 = 0.7526	729.99
332.91 K, 11000 kPa, x2 = 0.7526	730.98
332.91 K, 12000 kPa, x2 = 0.7526	731.94
332.91 K, 13000 kPa, x2 = 0.7526	732.91
332.91 K, 14000 kPa, x2 = 0.7526	733.85
332.91 K, 15000 kPa, x2 = 0.7526	734.78
332.91 K, 16000 kPa, x2 = 0.7526	735.69
332.91 K, 17000 kPa, x2 = 0.7526	736.6
332.91 K, 18000 kPa, x2 = 0.7526	737.48
332.91 K, 19000 kPa, x2 = 0.7526	738.35
332.91 K, 20000 kPa, x2 = 0.7526	739.19
332.97 K, 1000 kPa, x2 = 0.2507	701.45
332.97 K, 2000 kPa, x2 = 0.2507	702.46
332.97 K, 3000 kPa, x2 = 0.2507	703.46
332.97 K, 4000 kPa, x2 = 0.2507	704.44
332.97 K, 5000 kPa, x2 = 0.2507	705.41
332.97 K, 6000 kPa, x2 = 0.2507	706.36
332.97 K, 7000 kPa, x2 = 0.2507	707.31
332.97 K, 8000 kPa, x2 = 0.2507	708.26
332.97 K, 9000 kPa, x2 = 0.2507	709.21
332.97 K, 10000 kPa, x2 = 0.2507	710.12
332.97 K, 11000 kPa, x2 = 0.2507	711.06
332.97 K, 12000 kPa, x2 = 0.2507	711.97
332.97 K, 13000 kPa, x2 = 0.2507	712.88
332.97 K, 14000 kPa, x2 = 0.2507	713.78
332.97 K, 15000 kPa, x2 = 0.2507	714.65
332.97 K, 16000 kPa, x2 = 0.2507	715.53
332.97 K, 17000 kPa, x2 = 0.2507	716.38
332.97 K, 18000 kPa, x2 = 0.2507	717.21
332.97 K, 19000 kPa, x2 = 0.2507	718.03
332.97 K, 20000 kPa, x2 = 0.2507	718.82
